Measurements from patent US5218126A, “Halogen substituted mitomycin derivatives” (Kyowa Hakko Kogyo Co., Ltd., priority 1990, dated 1993).

Experiments:
Sarcoma 180 solid tumor = assay: Anti-tumor Activity to Sarcoma 180 Solid Tumor; format: in vivo; settings: Mus musculus, iv, 168 h; male ddY mice, s.c. Sarcoma 180, single i.v. injection 24 hours after implantation, tumor volume at 7 days; read-out: ED50 (dose showing T/C=0.5)
Experimental: Anti-tumor Activity to Sarcoma 180 Solid Tumor
5×10^6 Sarcoma 180 cells were abdominally implanted into a ddY mouse and the cells were collected from the ascites of the mouse 7 days after the implantation. The cells were washed once with a sterilized physiological saline solution and then suspended in a sterilized physiological saline solution to prepare a cell suspension of 5×10^7 cells/ml. 0.1 ml of the cell suspension was subcutaneously implanted into the right axiallary space of male ddY mice weighting 20±2 g.
A test compound was dissolved in a physiological saline solution or a Tween 80-containing physiological saline solution, and 0.1 to 0.2 ml of the solution was intravenously injected to five mice as one group 24 hours after the implatation of the tumor cells.
The anti-tumor activity of the test compound was determined by measuring the major diameter (a) and the minor diameter (b) of the tumor 7 days after the implantation of tumor cells, and the value of (a×b^2 /2), which corresponds to the volume of the tumor, was calculated. The intended anti-tumor activity is represented by a ratio of T/C, in which C indicates the tumor volume of mice of the control group to which no test compound was administered and T indicates the tumor volume of mice of the test group to which the test compound was administered. T/C at each dose given was plotted in a graph in which T/C is shown by an ordinary scale on the vertical axis and a dose is shown by a logarithmic scale on the horizontal axis. The relation between the dose and T/C was determined to be a straight line by the least-squares method. From the regression formula of the straight line thus obtained, the dose of showing T/C=0.5 is calculated to give ED50.

HeLa S3 cells = assay: Growth Inhibition Test on HeLa S3 Cells; format: cell-based; settings: Homo sapiens, 1 hour exposure, then 72 hours incubation at 37° C., Neutral Red staining, read-out: IC50 (concentration which inhibits cell growth by 50%)
Experimental: Growth Inhibition Test on HeLa S3 Cells
HeLa S3 cells were suspended in an MEM medium containing 10% fetal calf serum and 2 mM glutamine at a concentration of 3×10^4 cells/ml, and 0.1 ml of the cell suspension was put into each well of a 96-well microtiter plate.
After culturing at 37° C. overnight in a carbon dioxide gas incubator, 0.05 ml of a test sample appropriately diluted with the medium was added to each well. The cells were further cultured for one hour in the carbon dioxide gas incubator and the culture supernatant was removed. The residue was washed once with a phosphate buffer saline [PBS(-)] and 0.1 ml of a fresh medium was added to each well, and the cells were further incubated at 37° C. for 72 hours in the carbon dioxide gas incubator. After removal of the supernatant, 0.1 ml of culture medium containing 0.02% Neutral Red was added to each well, and the cells were further incubated at 37° C. for one hour in the carbon dioxide gas incubator to stain the cells. After removal of the culture supernatant, each well was washed once with a physiological saline, and the dye was extracted with 0.001N HCl/30% methanol. Absorbance of the extract at 550 nm was measured with a microplate reader. The cell growth inhibition percentage was calculated according to the following formula from the absorbance of the extract of the cells treated with the test compound in various concentrations and that of intact cells. [formula]
From the cell growth inhibition percentage thus obtained, the concentration of the test compound which inhibits cell growth by 50% (IC50) was determined.

Acute Toxicity = settings: mouse, in vivo, iv; ddY mice, single i.v. injection, 14 days observation, Behrens Kaerber's method
Experimental: A test compound was intravenously injected once to five ddY mice as one group. […] LD50 was calculated from the death rate of each group according to the Behrens Kaerber's method.

Molecule `COC1=CC(=O)C2=C(C1=O)[C@@H](COC(N)=O)[C@@]1(OC)[C@H]3N[C@H]3CN21` [Compound 1, 6-demethylmitomycin A] has an ED50 (Sarcoma 180 solid tumor) of 1.6 mg/kg, an IC50 (HeLa S3 cells) of 0.21 µM and an LD50 at 336 h (Acute Toxicity) of 2.8 mg/kg.

In the case of `COC1=CC(=O)C2=C(C1=O)[C@H](COC(N)=O)[C@@]1(O)[C@@H]3[C@H](CN21)N3C` (stereo partly shown) [Compound 2, 6-demethylmitomycin B], the ED50 (Sarcoma 180 solid tumor) is reported as 11 mg/kg, the IC50 (HeLa S3 cells) is reported as greater than 10 µM and the LD50 at 336 h (Acute Toxicity) is reported as greater than 20 mg/kg.

With `CO[C@@]12[C@H](COC(N)=O)C3=C(C(=O)C=C(N)C3=O)N1C[C@@H]1N[C@@H]12` [Compound 3, 6-demethylmitomycin C] the ED50 (Sarcoma 180 solid tumor) was 2.6 mg/kg, the IC50 (HeLa S3 cells) was 2.2 µM and the LD50 at 336 h (Acute Toxicity) was 9.7 mg/kg.

`CN1[C@H]2[C@@H]1CN1C3=C(C(=O)C(N)=CC3=O)[C@H](COC(N)=O)[C@@]21O` (stereo partly shown) [Compound 4, 6-demethylmitomycin D] gave an ED50 (Sarcoma 180 solid tumor) of 33 mg/kg, an IC50 (HeLa S3 cells) greater than 31 µM and an LD50 at 336 h (Acute Toxicity) greater than 100 mg/kg.

Molecule `COC1=CC(=O)C2=C(C1=O)[C@@H](COC(N)=O)[C@@]1(OC)[C@@H]3[C@H](CN21)N3C` (stereo partly shown) [Compound 5, 6-demethylmitomycin F] has an ED50 (Sarcoma 180 solid tumor) of 7.1 mg/kg, an IC50 (HeLa S3 cells) of 0.13 µM and an LD50 at 336 h (Acute Toxicity) of 26 mg/kg.

Work on `CO[C@@]12[C@H](COC(N)=O)C3=C(C(=O)C=C(N)C3=O)N1C[C@H]1[C@@H]2N1C` (stereo partly shown) [Compound 6, 6-demethylporfiromycin] yielded an ED50 (Sarcoma 180 solid tumor) of 8.4 mg/kg, an IC50 (HeLa S3 cells) of 7.3 µM and an LD50 at 336 h (Acute Toxicity) of 18 mg/kg.

Work on `CO[C@@]12[C@H](COC(N)=O)C3=C(C(=O)C(Cl)=C(N)C3=O)N1C[C@@H]1N[C@@H]12` [Compound 7, 6-chloro-6-demethylmitomycin C] yielded an IC50 (HeLa S3 cells) of 0.55 µM.

With `CO[C@@]12[C@H](COC(N)=O)C3=C(C(=O)C(Br)=C(N)C3=O)N1C[C@@H]1N[C@@H]12` [Compound 8, 6-bromo-6-demethylmitomycin C] the ED50 (Sarcoma 180 solid tumor) was 1.6 mg/kg, the IC50 (HeLa S3 cells) was 0.72 µM and the LD50 at 336 h (Acute Toxicity) was 3.2 mg/kg.
